Test results reported in PubChem BioAssay (NCI).
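Growth conditions: 96-well plates. Treatment: test compound, 48 hours, 5 concentrations. Analysis: linear interpolation between bracketing concentrations; unreached endpoints set to highest concentration. GI50 = concentration required for 50% inhibition of growth. TGI is the concentration that stops growth completely.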

Experiments:
Assay in all cases: growth of human tumour cells (NCI), 48 h
[1] = system: UACC-257 melanoma
[2] = system: UO-31 renal
[3] = system: SW-620 colon
[4] = system: DU-145 prostate
[5] = system: BT-549 breast
[6] = system: EKVX NSCLC
[7] = system: SK-OV-3 ovarian
[8] = system: PC-3 prostate
[9] = system: HCC-2998 colon
[10] = system: KM12 colon
[11] = system: HCT-116 colon
[12] = system: MDA-MB-231 breast
[13] = system: SNB-75 CNS
[14] = system: CAKI-1 renal
[15] = system: MDA-MB-435
[16] = system: NCI-H23 lung
[17] = system: ACHN renal
[18] = system: UACC-62 melanoma
[19] = system: SNB-19 CNS
[20] = system: HT29 colon
[21] = system: MCF7 breast
[22] = system: COLO 205 colon
[23] = system: OVCAR-8 ovarian
[24] = system: 786-0 renal
[25] = system: SK-MEL-2 melanoma
[26] = system: SF-295 CNS
[27] = system: K-562 leukemia
[28] = system: OVCAR-5 ovarian
[29] = system: RXF 393 renal
[30] = system: SF-268 CNS
[31] = system: A549 NSCLC
[32] = system: HOP-62 NSCLC
[33] = system: SF-539 CNS
[34] = system: SN12C renal
[35] = system: TK-10 renal
[36] = system: M14 melanoma
[37] = system: RPMI-8226 leukemia
[38] = system: NCI/ADR-RES ovarian
[39] = system: IGROV1 ovarian
[40] = system: U251 CNS
[41] = system: HL-60(TB) leukemia
[42] = system: HS 578T breast
[43] = system: SK-MEL-28 melanoma
[44] = system: CCRF-CEM leukemia
[45] = system: OVCAR-4 ovarian
[46] = system: A498 renal
[47] = system: T-47D breast
[48] = system: NCI-H522 lung
[49] = system: NCI-H460 lung
[50] = system: SK-MEL-5 melanoma
[51] = system: MOLT-4 leukemia
[52] = system: MALME-3M melanoma
[53] = system: HOP-92 NSCLC

C=C(C=O)[C@@H]1CC[C@]2(C(=O)O)CC[C@]3(C)C(CC[C@@H]4[C@@](C)(CCC#N)[C@H](C(=C)C=O)CC[C@]43C)[C@@H]12 (stereo partly specified)
GI50 [1]: 1800 nM | TGI [1]: 3.88 µM | GI50 [2]: 2500 nM | TGI [2]: 8.02 µM | GI50 [3]: 2180 nM | TGI [3]: 4.79 µM | GI50 [4]: 3.72 µM | TGI [4]: 12.7 µM | GI50 [5]: 1820 nM | TGI [5]: 3.57 µM | GI50 [6]: 6.64 µM | TGI [6]: 23.9 µM | GI50 [7]: 8.49 µM | TGI [7]: 23.1 µM | GI50 [8]: 1950 nM | TGI [8]: 5.28 µM | GI50 [9]: 1930 nM | TGI [9]: 3.81 µM | GI50 [10]: 3.22 µM | TGI [10]: 10.6 µM | GI50 [11]: 1800 nM | TGI [11]: 3.46 µM | GI50 [12]: 3.05 µM | TGI [12]: 9.1 µM | GI50 [13]: 6.07 µM | TGI [13]: 22.3 µM | GI50 [14]: 3.38 µM | TGI [14]: 15.4 µM | GI50 [15]: 3.21 µM | TGI [15]: 11.4 µM | GI50 [16]: 2130 nM | TGI [16]: 4.87 µM | GI50 [17]: 3.26 µM | TGI [17]: 10.5 µM | GI50 [18]: 2000 nM | TGI [18]: 4.88 µM | GI50 [19]: 3.93 µM | TGI [19]: 18.3 µM | GI50 [20]: 1990 nM | TGI [20]: 4.03 µM | GI50 [21]: 2900 nM | TGI [21]: 12.1 µM | GI50 [22]: 10.9 µM | TGI [22]: 27.7 µM | GI50 [23]: 2590 nM | TGI [23]: 7.06 µM | GI50 [24]: 1860 nM | TGI [24]: 3.8 µM | GI50 [25]: 1990 nM | TGI [25]: 4.01 µM | GI50 [26]: 3.07 µM | TGI [26]: 11.6 µM | GI50 [27]: 2760 nM | TGI [27]: 9.34 µM | GI50 [28]: 2370 nM | TGI [28]: 6.69 µM | GI50 [29]: 1980 nM | TGI [29]: 3.68 µM | GI50 [30]: 6.22 µM | TGI [30]: 26.2 µM | GI50 [31]: 7.29 µM | TGI [31]: 23.9 µM | GI50 [32]: 2080 nM | TGI [32]: 4.67 µM | GI50 [33]: 2910 nM | TGI [33]: 9.31 µM | GI50 [34]: 3.2 µM | TGI [34]: 15.2 µM | GI50 [35]: 3.34 µM | TGI [35]: 13.5 µM | GI50 [36]: 1920 nM | TGI [36]: 4.1 µM | GI50 [37]: 2630 nM | TGI [37]: 7.26 µM | GI50 [38]: 3.87 µM | TGI [38]: 34.5 µM | GI50 [39]: 2820 nM | TGI [39]: 8.47 µM | GI50 [40]: 1880 nM | TGI [40]: 3.84 µM | GI50 [41]: 2020 nM | TGI [41]: 7.8 µM | GI50 [42]: 3.17 µM | TGI [42]: 18.9 µM | GI50 [43]: 2450 nM | TGI [43]: 6.22 µM | GI50 [44]: 2780 nM | TGI [44]: 8.75 µM | GI50 [45]: 4.22 µM | TGI [45]: 23.5 µM | GI50 [46]: 14.2 µM | TGI [46]: 29.3 µM | GI50 [47]: 3.28 µM | TGI [47]: 15.2 µM | GI50 [48]: 2260 nM | TGI [48]: 6.2 µM | GI50 [49]: 5.56 µM | TGI [49]: 19.8 µM | GI50 [50]: 1780 nM | TGI [50]: 3.33 µM | GI50 [51]: 2710 nM | TGI [51]: 13.7 µM | GI50 [52]: 2530 nM | TGI [52]: 8.01 µM | GI50 [53]: 1370 nM | TGI [53]: 3.55 µM
